Measurements published in patent US10322123B2, “Compound for anti-cancer therapy that acts by targeting GOF mutant P53 and stimulates P73 to restore the P53 pathway signaling” (The Penn State Research Foundation, priority 2014, dated 2019).

Tests used:
p21, Puma, DR5 and Noxa = experiment: Western blot of p53 target gene proteins; assay type: cell-based, human
Description: (§1) Proteins were extracted from cells and electrophoresed through 4-12% SDS-PAGE then transferred to PVDF membranes. The primary antibodies indicated in the figures were incubated with the transferred PVDF in blocking buffer at 4° C. overnight. Antibody binding was detected on PVDF with appropriate IRDye-secondary antibodies (LI-COR Biosciences, USA) by the ODYSSEY infrared imaging system.

DLD-1 cells = experiment: CellTiter-Glo cell viability, DLD-1 with Ad-p73 or p73 knock-down; assay type: cell-based, human; settings: for Combination index (CI): DLD-1
Description: Cells at a concentration of 5000 cells/well in 96-well plates were treated with NSC59984 or other drugs. At seventy-two hours after treatment, cells were mixed with an equal volume of CellTiter-Glo reagents (Promega, Madison, Wis.), following the manufacturer's protocol, and bioluminescence imaging was measured using the IVIS imager.
Cells were infected with retrovirus containing the pSIREN-REtrpcQ retroviral vector recombinant with TAp73 RNAi. Cells were cultured with blasticidin for several weeks, and blasticidin-resistant clones were selected. Knock-down of p73 was detected by measuring p73 protein levels by Western blot with anti-p73 antibody (Bethyl laboratories Inc. USA).
Cells were infected with an adenovirus that expresses p73-beta (Ad-p73) or wild type p53 (Ad-p53) and cultured for 24 hr, as previously described (Huang C, et al., Cancer Biol Ther 2009; 8: 2186-93). Then, the infected cells were cultured in fresh medium and subjected to different treatments.
All results were obtained from triplicate experiments, unless other indicated. Statistical analyses were performed using PRISM4 Software (GraphPad Software, Inc., San Diego, Calif., USA), ANOVA and Student's t-test. Statistical significances were determined by p<0.05. Combination indices were calculated using the Chou-Talalay method with CalcuSyn software (biosoft).

Hop92 and SW480 cells = experiment: Flow cytometry sub-G1 DNA content; assay type: cell-based, human; settings: 25 μM and 50 μM, 8 hours
Description: Cells were treated with NSC59984 or other drugs. […] The samples were then subjected to analysis by an Epics Elite flow cytometer to measure the DNA content of the stained cells.

cancer cells = experiment: Colony formation assay; assay type: cell-based, human; settings: treated 3 days, then drug-free medium two weeks
Description: Franken N A, et al., Nat Protoc 2006; 1: 2315-9). Cancer cells were plated at 500 cells/well on 6-well plate, and then treated with NSC59984 next day. At 3 days after NSC59984 treatment, cancer cells were cultured with drug-free complete medium for two weeks with fresh medium changed every 3 days. Cells were fixed with 10% formalin and stained with 0.05% crystal violet at the end of two weeks period of cell culture.

PARP cleavage = experiment: Cleaved PARP Western blot; assay type: cell-based, human; settings: for PARP cleavage: 30 hours
Description: as §1

γH2AX = experiment: Genotoxicity measured by γH2AX; assay type: cell-based, human
Description: as §1

mutant p53 mRNA = experiment: Mutant p53 mRNA qRT-PCR; assay type: cell-based, human; settings: SW480 cells, 3 hr or 16 hr, compared to DMSO control
Source text: Total RNA was isolated from cells using RNeasy mini kit (Qiagen, USA) by the recommended protocol. Reverse transcription used SuperScript II first-strand synthesis system (Invitrogen, USA) with random primers. qRT-PCR reactions used SYBR green master mix with the Real-Time PCR Detection systems (Bio-Rad, USA). Primers for qRT-PCR are (forward) 5′-[…]-3′ (SEQ ID NO: 1) and (reverse) 5′-[…]-3′ (SEQ ID NO: 2) for p53, (forward) 5′-TGTCCGTCAGAACCCATG-3′ (SEQ ID NO: 3) and (reverse) 5′-[…]-3′ (SEQ ID NO: 4) for p21, (forward) 5′-[…]-3′ (SEQ ID NO: 5) and (reverse) 5′-[…]-3′ (SEQ ID NO: 6) for Puma, (forward) 5′-[…]-3′ (SEQ ID NO: 7) and (reverse) 5′-[…]-3′ (SEQ ID NO: 8) for Noxa, (forward) 5′-CTGGGCTACACTGAGCACC-3′ (SEQ ID NO: 9) and (reverse) 5′-[…]-3′ (SEQ ID NO: 10) for Gapdh. Target gene expression levels were normalized with Gapdh.

[1] = biological target: T1, wild-type p53 protein epitope (Homo sapiens, UniProt P04637, R175H); experiment: Wild-type p53 conformation with Pab1620 antibody; assay type: cell-based; settings: RXF393 cells, 24 hr
T1 construct: endogenous in cells; host or cells: RXF393
Description: Five hundred micrograms of cell lysate were incubated with 2 μg of antibody overnight at 4° C. Then, 25 μl of protein A-Sepharose beads were added to the lysates. The immunoprecipitated proteins were eluted from protein A-Sepharose beads by boiling with 2× sample buffer and subjected to SDS-PAGE.

p73 = biological target: T2, p73 (Homo sapiens, UniProt O15350); experiment: p73 protein level Western blot; assay type: cell-based; settings: mutant p53-expressing tumor cells, 8 hours
T2 construct: endogenous in cells
Description: as §1

DLD-1 xenograft tumors = experiment: In vivo anti-tumor assay, xenograft; parameters: species or system mice; settings: 45 mg/kg i.p. every 5 days
Description: (§2) CRL nude mice (female, 4-6 weeks old) were inoculated s.c. in the opposite flanks with 5 million DLD-1 or p73 knock-down DLD-1 cells in an equal volume of martrigel. Treatment with NSC59984 (i.p. injection) was initiated when the tumor masses reached a size of 3-5 mm. NSC59984 (45 mg/kg) was injected by i.p. route every 5 days. Fifteen days after treatment, the mice were euthanized using an institutional animal care and use committee-approved animal protocol.

[2] = test system: p73 knock-down DLD-1 xenograft tumors; experiment: In vivo anti-tumor assay, xenograft; parameters: species or system mice; settings: 45 mg/kg i.p. every 5 days
Description: as §2

[3] = HCT116 and p53-null HCT116 cells

T2 sequence (O15350 whole entry): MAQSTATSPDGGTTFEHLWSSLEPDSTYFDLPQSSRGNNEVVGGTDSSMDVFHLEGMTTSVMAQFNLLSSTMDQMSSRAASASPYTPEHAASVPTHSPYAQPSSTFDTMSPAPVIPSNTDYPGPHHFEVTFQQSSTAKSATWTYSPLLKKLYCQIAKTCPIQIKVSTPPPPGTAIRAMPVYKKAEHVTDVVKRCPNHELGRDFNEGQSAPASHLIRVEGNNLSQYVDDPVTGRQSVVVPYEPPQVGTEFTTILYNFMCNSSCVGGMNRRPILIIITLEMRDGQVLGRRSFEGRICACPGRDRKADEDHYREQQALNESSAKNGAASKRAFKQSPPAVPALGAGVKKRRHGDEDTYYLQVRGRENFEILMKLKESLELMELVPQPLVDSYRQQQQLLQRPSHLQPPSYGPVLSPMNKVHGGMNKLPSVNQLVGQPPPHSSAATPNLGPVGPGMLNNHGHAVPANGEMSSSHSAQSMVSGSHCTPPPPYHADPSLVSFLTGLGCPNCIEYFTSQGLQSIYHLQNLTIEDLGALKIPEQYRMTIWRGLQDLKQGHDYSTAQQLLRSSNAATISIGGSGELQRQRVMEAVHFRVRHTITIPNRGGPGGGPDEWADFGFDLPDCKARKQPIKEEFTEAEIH

In the case of `CN1CCN(C(=O)/C=C/c2ccc([N+](=O)[O-])o2)CC1` [NSC59984, (E)-1-(4-methylpiperazin-1-yl)-3-(5-nitrofuran-2-yl)prop-2-en-1-one], the p21 protein (p21, Puma, DR5 and Noxa; [3]) is reported as “up-regulated”, the “protein levels of Puma, DR5 and Noxa” value (p21, Puma, DR5 and Noxa; [3]) is reported as “not up-regulated” and the “protein levels of p21, Puma, Noxa and DR5” value (p21, Puma, DR5 and Noxa; SW480 and DLD-1 cells, increasing doses, 8 hr) is reported as “significantly up-regulated”. For the same compound, the “up-regulation of endogenous p21, Puma, DR5 and Noxa proteins” value (p21, Puma, DR5 and Noxa; p73 knock-down DLD-1 cells, 8 hr) was “reduced by p73 knock-down”, the “Combination index (CI)” value (DLD-1 cells; Ad-P73 dilution 1:1k, NSC59984 12 μM) was 0.273 and the “Combination index (CI)” value (DLD-1 cells; Ad-P73 dilution 1:1k, NSC59984 25 μM) was 0.12. The “Combination index (CI)” value (DLD-1 cells; Ad-P73 dilution 1:1k, NSC59984 50 μM) was 0.033, the “Combination index (CI)” value (DLD-1 cells; Ad-P73 dilution 1:2k, NSC59984 12 μM) was 0.357 and the “Combination index (CI)” value (DLD-1 cells; Ad-P73 dilution 1:2k, NSC59984 25 μM) was 0.127. The “Combination index (CI)” value (DLD-1 cells; Ad-P73 dilution 1:2k, NSC59984 50 μM) was 0.039, the “Combination index (CI)” value (DLD-1 cells; Ad-P73 dilution 1:4k, NSC59984 12 μM) was 0.303 and the “Combination index (CI)” value (DLD-1 cells; Ad-P73 dilution 1:4k, NSC59984 25 μM) was 0.121. For the same compound, the “Combination index (CI)” value (DLD-1 cells; Ad-P73 dilution 1:4k, NSC59984 50 μM) was 0.037, the “Combination index (CI)” value (DLD-1 cells; Ad-P73 dilution 1:8k, NSC59984 12 μM) was 0.319 and the “Combination index (CI)” value (DLD-1 cells; Ad-P73 dilution 1:8k, NSC59984 25 μM) was 0.115. For the same compound, the “Combination index (CI)” value (DLD-1 cells; Ad-P73 dilution 1:8k, NSC59984 50 μM) was 0.036, the “Combination index (CI)” value (DLD-1 cells; Ad-P73 dilution 1:16k, NSC59984 12 μM) was 0.239 and the “Combination index (CI)” value (DLD-1 cells; Ad-P73 dilution 1:16k, NSC59984 25 μM) was 0.098. For the same compound, the “Combination index (CI)” value (DLD-1 cells; Ad-P73 dilution 1:16k, NSC59984 50 μM) was 0.027, the “Combination index (CI)” value (DLD-1 cells; Ad-P73 dilution 1:32k, NSC59984 12 μM) was 0.636 and the “Combination index (CI)” value (DLD-1 cells; Ad-P73 dilution 1:32k, NSC59984 25 μM) was 0.282. The “Combination index (CI)” value (DLD-1 cells; Ad-P73 dilution 1:32k, NSC59984 50 μM) was 0.078, the “cell viability, combination with exogenous p73” value (DLD-1 cells; DLD-1 cells infected with Ad-p73) was “synergized” and the cell viability (DLD-1 cells; p73 knock-down DLD-1 cells compared with DLD-1 cells, 72 hr) was “higher”. For the same compound, the “subG1 DNA-content” value (Hop92 and SW480 cells) was “nor subG1 DNA-content was increased”, the colony numbers (cancer cells) was “significantly reduced” and the PARP cleavage (PARP cleavage; cancer cells, dose-dependent) was “increased”. For the same compound, the PARP cleavage (PARP cleavage; normal cells, same doses) was “not observed”, the “NSC59984-induced PARP cleavage” value (PARP cleavage; p73 knock-down DLD-1 cells, 24 hours) was “partially abrogated” and the γH2AX (γH2AX; HCT116 cells, 8 hours, 12 μM) was “increase of γH2AX”. For the same compound, the γH2AX (γH2AX; SW480 and DLD-1 cancer cells, within 24 hr, up to 50 μM) was “No γH2AX was found”, the “p53 mRNA” value (mutant p53 mRNA) was “not decreased” and the “immunohistochemistry staining with Pab1620” value [1] was “no staining”. The “immunoprecipitation of p53 protein with Pab1620 antibody” value [1] was “no p53 protein bound”, the p73 protein levels (p73) was “not found to be increased” and the xenograft tumor growth (DLD-1 xenograft tumors; compared to DMSO control) was “significantly repressed”. The “tumor weight reduced by” value (DLD-1 xenograft tumors; day 15) was 34%, the tumor growth suppression [2] was “not observed” and the “tumor weight reduced by” value ([2]; day 15) was 18%.
